Patent publication US20260000642A1 (Tay Therapeutics Limited, priority 2022, published 2026)

What was measured:
[1] = Sprague-Dawley rat pharmacokinetics (IV and PO); assay type: in vivo; settings: male Sprague-Dawley rats, cassette mode, Method 1
From the text: BET protein inhibitors with a long half-life and good oral bioavailability in in vivo DMPK parameters are promising oral drug candidates. Some of the exemplary compounds of the current disclosure have a long half-life and good oral bioavailability in in vivo DMPK parameters in the Sprague-Dawley rat following intravenous (IV) and oral (PO) dosing. The experimental methods and results (Table 5) are provided hereinafter.
Sprague-Dawley Rat Pharmacokinetics, Method 1
Compounds were formulated in 5% DMSO, 40% PEG-400, 55% Milli-Q water at a concentration of 0.2 mg/mL for IV and at 0.5 mg/mL for PO. Two male Sprague-Dawley rats per arm were dosed with up to 5 compounds in cassette mode, which each compound being dosed at 1 mg/kg IV and 5 mg/kg PO. Blood was sampled at various timepoints and plasma isolated. 50 μL of plasma with 5 μL of blank Sprague-Dawley rat plasma were added to 200 μL of acetonitrile containing IS mixture. The samples were vortexed for 30 s. After centrifugation at 4 degrees Celsius, 3900 rpm for 15 min, the supernatant was diluted 3 times with water. 20 μL of diluted supernatant was injected into the LC/MS/MS system for quantitative analysis and concentration of analyte determined by comparison with matrix matched standard curve. WinNonlin (Phoenix™, version 8.3) or other similar software may be used for pharmacokinetic calculations.

BRD4 BD1 = molecular target: T1, BRD4 BD1 (Homo sapiens, UniProt O60885); assay: NanoBRET bromodomain assay, NanoLuc-BRD4-BD1 fusion vector in HEK293 cells; assay type: cell-based; settings: top concentration 10 μM
T1 construct: HEK293 cells were transfected using NanoLuc-BRD4-BD1 or NanoLuc-BRD4-BD2 fusion vectors; host or cells: HEK293
From the text: (§1) Bromodomain Assay Procedure

BRD4 BD2 = molecular target: T2, BRD4 BD2 (Homo sapiens, UniProt O60885); assay: NanoBRET bromodomain assay, NanoLuc-BRD4-BD2 fusion vector in HEK293 cells; assay type: cell-based; settings: NanoBRET, HEK293 cells, top concentration 10 μM
T2 construct: HEK293 cells were transfected using NanoLuc-BRD4-BD1 or NanoLuc-BRD4-BD2 fusion vectors; host or cells: HEK293
From the text: as §1

[2] = Plasma stability assay, rat plasma; assay type: in vitro ADME; settings: 37° C.
Description: Exemplary compounds of the disclosure are stable upon incubation in mouse plasma. Stability is expressed as a % remaining after 120 minutes. The experimental methods and results (Table 2) are provided hereinafter.
Plasma Stability Assay, Method 1
From stock solution of compound in 10 mM DMSO, a working solution of 1 mM is prepared by diluting the compound in DMSO. To 398 μL of plasma pre-warmed at 37° C. for 15 minutes), 2 μL of working solution of compound is added, resulting in a final concentration of 5 μM (0.5% DMSO) for the compound. The sample is then incubated at 37° C. Aliquot is withdrawn at specified time-points (0, 15, 30, 60 and 120 mins). The reaction is stopped by addition of 450 μL cold acetonitrile containing internal standard (IS). […] Aliquots of the supernatant is analysed using LC-MS/MS. The percent remaining of the compound at each time point is calculated with respect to the control sample (0 min time-point).
Plasma Stability Assay, Method 2
A working solution of compound (500 μM) is prepared in DMSO (100%). To 735 μL of plasma, 15 μL of working solution of compound is added—resulting in a final concentration of 10 μM (2% DMSO) for the compound. The sample is then incubated at 37° C. Aliquot is withdrawn at time-points—0, 15, 30, 60, 90 and 120 mins. The reaction is stopped by using chilled acetonitrile containing internal standard (IS). The samples are centrifuged and the supernatants analyzed using LC-MS/MS. The percent remaining of the compound at each time point is calculated with respect to the control sample (0 min time-point).

[3] = Intrinsic clearance in liver microsomes, rat; assay type: in vitro ADME; settings: pH 7.4, rat liver microsomes 0.5 mg/mL, Method 1, read-out: Half-Life (T1/2) (min) Rat
Description: (§2) BET protein inhibitors with a long half-life in liver microsomes from various species are in some embodiments promising oral drug candidates. Some of the exemplary compounds of the current disclosure have a long half-life in liver microsomes, expressed in minutes. The experimental methods and results (Table 3) are provided hereinafter.
(§3) Intrinsic Clearance in Liver Microsomes Assay, Method 1
(§4) From stock solution of compound on 10 mM DMSO, a working solution of 0.1 mM is prepared by diluting the compound in DMSO. 6.25 μL of a 20 mg/mL solution of microsomes in PBS pH 7.4 buffer is added to 216.25 μL PBS pH 7.4 buffer (final microsome concentration—0.5 mg/mL). 25 μL of 10 mM solution of NADPH in PBS pH 7.4 buffer is added to the incubations (final NADPH concentration—1 mM). The mixture is pre-warmed to 37° C. for 10 minutes. 2.5 μL of test compound working solution is added (final compound concentration—1 μM with 1% DMSO). […] The percent compound remaining at each time point is calculated with respect to that of the 0.5 min sample. The data are analysed to calculate half-life. […]
(§5) A 50 mM stock solution (in DMSO) is prepared for the compound. […] The samples are centrifuged, and the supernatants analysed by LC-MS/MS. The percent compound remaining at each time point is calculated with respect to that of the 0 min sample. The data are then analysed to calculate half-life and intrinsic clearance (CLint). […]

[4] = Plasma stability assay, human plasma; assay type: in vitro ADME; settings: 37° C., Method 1 (5 μM)
[5] = Intrinsic clearance in liver microsomes, mouse; assay type: in vitro ADME; settings: pH 7.4, mouse liver microsomes 0.5 mg/mL, Method 1, read-out: Half-Life (T1/2) (min) Mouse
Description: as §2, §3, §4, §5

CXCL10 = assay: Human PBMC assay, CXCL10 by ELISA (IFN-γ stimulation); assay type: cell-based
Description: The impact of Examples 23, 80, and 101 on IL-17A, IL-22, and CXCL10 levels was analyzed in cryopreserved human peripheral blood mononuclear cells (PBMC) by ELISA.
For IL-17A and IL-22 assays, Examples 23, 80, and 101 were serially diluted from 10 mM in DMSO and further diluted in assay media to 100× the required final concentration, of which, 2 μL was added per well to a round-bottom 96-well tissue culture plate where the final DMSO concentration per well was 0.1%. CD2, CD3, and CD28 antibody-coated beads from the T-cell activation/expansion kit (Miltenyi Biotec) were added to the PBMC at a bead-to-cell ratio of 1:2. The mixture of PBMCs and beads were seeded into the wells of the round-bottom 96-well plate at a concentration of 2×10^5 cells/well in a total volume of 200 μL. The cells were cultured for 72 hours at 37° C. and 5% CO2 and then supernatants were collected and IL-17A and IL-22 levels were measured by ELISA. For the CXCL10 assay, Examples 23, 80, and 101 were serially diluted from 10 mM in DMSO and further diluted in assay media to 100× the required final concentration, of which 2 μL was added per well to a 96-well tissue culture plate. The final compound concentration ranged from 30,000 nM to 0.005 nM and the final DMSO concentration per well was 0.3%. PBMCs were seeded at approximately […] in the wells of the 96-well tissue culture plate in a total volume of 190 μL. The plate was incubated for 1 hour at 37° C. and 5% CO2. The cells were then stimulated with IFN-γ (15 ng/mL final concentration) in a volume of 10 μL. The cells were then cultured for 24 hours at 37° C. and 5% CO2. The supernatant was collected and CXCL10 levels were measured by ELISA.

IL-22 = assay: Human PBMC assay, IL-22 by ELISA (CD2/CD3/CD28 bead stimulation); assay type: cell-based; settings: 72 hours
Description: (§6) CD2, CD3, and CD28 antibody-coated beads from the T-cell activation/expansion kit (Miltenyi Biotec) were added to the PBMC at a bead-to-cell ratio of 1:2. The mixture of PBMCs and beads were seeded into the wells of the round-bottom 96-well plate at a concentration of 2×10^5 cells/well in a total volume of 200 μL. The cells were cultured for 72 hours at 37° C. and 5% CO2 and then supernatants were collected and IL-17A and IL-22 levels were measured by ELISA. […] The final compound concentration ranged from 30,000 nM to 0.005 nM and the final DMSO concentration per well was 0.3%. PBMCs were seeded at approximately […] in the wells of the 96-well tissue culture plate in a total volume of 190 μL. The plate was incubated for 1 hour at 37° C. and 5% CO2. […] The cells were then cultured for 24 hours at 37° C. and 5% CO2. The supernatant was collected and CXCL10 levels were measured by ELISA.

IL-17A = assay: Human PBMC assay, IL-17A by ELISA (CD2/CD3/CD28 bead stimulation); assay type: cell-based; settings: 72 hours
Description: as §6

IC50 (BRD4 BD1) [µM] | IC50 (BRD4 BD2) [µM] | Plasma Stability (% remaining at 120 minutes) Rat ([2]; Method 2 (10 μM)) [%] | IC50 for IL-22 relative to GSK620 (IL-22) | IC50 for IL-17A relative to GSK620 (IL-17A) | Compound | selectivity to induction of CXCL10 relative to IL-17A and IL-22 (CXCL10) | other results
≥ 10 | 0.05 to 0.2 | 81 | – | – | CNC(=O)c1[nH]c(C(=O)NC2COC2)cc1OC(C)c1ccc(Cl)cc1 (single isomer, unassigned) [Example 31, 3-(1-(4-chlorophenyl)ethoxy)-N^2-methyl-N^5-(oxetan-3-yl)-1H-pyrrole-2,5-dicarboxamide] | – | IV T1/2 ([1]; IV 1 mg/kg): 0.6 h; PO F (%) ([1]; PO 5 mg/kg (IV 1 mg/kg)): 15%
– | – | – | decreased mean 1050 | increased mean 1050 | CNC(=O)c1[nH]c(-c2cnn(C(C)C)c2)cc1O[C@@H](C)c1ccccc1 [Example 80, (S)-5-(1-isopropyl-1H-pyrazol-4-yl)-N-methyl-3-(1-phenylethoxy)-1H-pyrrole-2-carboxamide] | showed selectivity | –

Further lines, the compound ahead of its results:

Compound | IC50 (BRD4 BD1) [µM] | IC50 (BRD4 BD2) [µM] | Plasma Stability (% remaining at 120 minutes) Rat ([2]; Method 2 (10 μM)) [%] | IC50 for IL-22 relative to GSK620 (IL-22) | IC50 for IL-17A relative to GSK620 (IL-17A) | selectivity to induction of CXCL10 relative to IL-17A and IL-22 (CXCL10) | other results
CNC(=O)c1[nH]c(C(=O)N[C@H]2CC[C@H](O)CC2)cc1OC(C)c1ccccc1F (single isomer, unassigned) [Example 45] | ≥ 10 | 0.05 to 0.2 | 88 | – | – | – | –
CCNC(=O)c1cc(OC(C)c2c(F)cccc2F)c(C(=O)NC)[nH]1 (single isomer, unassigned) [Example 55, 3-(1-(2,6-difluorophenyl)ethoxy)-N^5-ethyl-N^2-methyl-1H-pyrrole-2,5-dicarboxamide] | ≥ 10 | > 10 | 88 | – | – | – | –
CNC(=O)c1[nH]c(C(=O)N[C@H]2CC[C@H](O)CC2)cc1O[C@@H](C)c1ccccc1 (single isomer, unassigned) [Example 97] | – | – | – | – | – | – | bioavailability ([1]; rat, plasma, PO 5 mg/kg (IV 1 mg/kg), read-out: PO F (%)): 60%; half-life at 1 μM [3]: > 60 min; Plasma Stability (% remaining at 120 minutes) Human [4]: >99%; Plasma Stability (% remaining at 120 minutes) Rat ([2]; Method 1 (5 μM)): >99%; half-life at 1 μM [5]: 70 min
CNC(=O)c1[nH]c(-c2ncc(C)[nH]2)cc1O[C@@H](C)c1ccccc1 [Example 23, (S)—N-methyl-5-(5-methyl-1H-imidazol-2-yl)-3-(1-phenylethoxy)-1H-pyrrole-2-carboxamide] | – | – | – | decreased mean 1050 | decreased mean 1050 | showed selectivity | –
